The text below walks through data of patent publication US10479784B2, “Substituted pyrazin-2-amines as inhibitors of ATR kinase” (Vertex Pharmaceuticals Incorporated, priority 2008, dated 2019).

Where only a bound is given, the exact number is not on record here.

The target of this test is full-length ATR (Homo sapiens (Human), UniProt Q13535). The test can be described thus: ATR Inhibition Assay (radioactive-phosphate incorporation). Format: biochemical. The following applies: read-out: ATR Ki. In short, it runs like this: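 Ki(app) was derived by non-linear regression of background-corrected initial rates of 33P incorporation into an 800 μM target peptide, read by phosphocellulose filter scintillation counting. Reaction conditions: 5 nM full-length ATR, 10 μM [γ-33P]ATP, pH 7.5 Tris buffer with MgCl2 and DTT, 25 °C, 10-min preincubation, 24 h run.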
Chain of full-length ATR (Q13535 whole entry): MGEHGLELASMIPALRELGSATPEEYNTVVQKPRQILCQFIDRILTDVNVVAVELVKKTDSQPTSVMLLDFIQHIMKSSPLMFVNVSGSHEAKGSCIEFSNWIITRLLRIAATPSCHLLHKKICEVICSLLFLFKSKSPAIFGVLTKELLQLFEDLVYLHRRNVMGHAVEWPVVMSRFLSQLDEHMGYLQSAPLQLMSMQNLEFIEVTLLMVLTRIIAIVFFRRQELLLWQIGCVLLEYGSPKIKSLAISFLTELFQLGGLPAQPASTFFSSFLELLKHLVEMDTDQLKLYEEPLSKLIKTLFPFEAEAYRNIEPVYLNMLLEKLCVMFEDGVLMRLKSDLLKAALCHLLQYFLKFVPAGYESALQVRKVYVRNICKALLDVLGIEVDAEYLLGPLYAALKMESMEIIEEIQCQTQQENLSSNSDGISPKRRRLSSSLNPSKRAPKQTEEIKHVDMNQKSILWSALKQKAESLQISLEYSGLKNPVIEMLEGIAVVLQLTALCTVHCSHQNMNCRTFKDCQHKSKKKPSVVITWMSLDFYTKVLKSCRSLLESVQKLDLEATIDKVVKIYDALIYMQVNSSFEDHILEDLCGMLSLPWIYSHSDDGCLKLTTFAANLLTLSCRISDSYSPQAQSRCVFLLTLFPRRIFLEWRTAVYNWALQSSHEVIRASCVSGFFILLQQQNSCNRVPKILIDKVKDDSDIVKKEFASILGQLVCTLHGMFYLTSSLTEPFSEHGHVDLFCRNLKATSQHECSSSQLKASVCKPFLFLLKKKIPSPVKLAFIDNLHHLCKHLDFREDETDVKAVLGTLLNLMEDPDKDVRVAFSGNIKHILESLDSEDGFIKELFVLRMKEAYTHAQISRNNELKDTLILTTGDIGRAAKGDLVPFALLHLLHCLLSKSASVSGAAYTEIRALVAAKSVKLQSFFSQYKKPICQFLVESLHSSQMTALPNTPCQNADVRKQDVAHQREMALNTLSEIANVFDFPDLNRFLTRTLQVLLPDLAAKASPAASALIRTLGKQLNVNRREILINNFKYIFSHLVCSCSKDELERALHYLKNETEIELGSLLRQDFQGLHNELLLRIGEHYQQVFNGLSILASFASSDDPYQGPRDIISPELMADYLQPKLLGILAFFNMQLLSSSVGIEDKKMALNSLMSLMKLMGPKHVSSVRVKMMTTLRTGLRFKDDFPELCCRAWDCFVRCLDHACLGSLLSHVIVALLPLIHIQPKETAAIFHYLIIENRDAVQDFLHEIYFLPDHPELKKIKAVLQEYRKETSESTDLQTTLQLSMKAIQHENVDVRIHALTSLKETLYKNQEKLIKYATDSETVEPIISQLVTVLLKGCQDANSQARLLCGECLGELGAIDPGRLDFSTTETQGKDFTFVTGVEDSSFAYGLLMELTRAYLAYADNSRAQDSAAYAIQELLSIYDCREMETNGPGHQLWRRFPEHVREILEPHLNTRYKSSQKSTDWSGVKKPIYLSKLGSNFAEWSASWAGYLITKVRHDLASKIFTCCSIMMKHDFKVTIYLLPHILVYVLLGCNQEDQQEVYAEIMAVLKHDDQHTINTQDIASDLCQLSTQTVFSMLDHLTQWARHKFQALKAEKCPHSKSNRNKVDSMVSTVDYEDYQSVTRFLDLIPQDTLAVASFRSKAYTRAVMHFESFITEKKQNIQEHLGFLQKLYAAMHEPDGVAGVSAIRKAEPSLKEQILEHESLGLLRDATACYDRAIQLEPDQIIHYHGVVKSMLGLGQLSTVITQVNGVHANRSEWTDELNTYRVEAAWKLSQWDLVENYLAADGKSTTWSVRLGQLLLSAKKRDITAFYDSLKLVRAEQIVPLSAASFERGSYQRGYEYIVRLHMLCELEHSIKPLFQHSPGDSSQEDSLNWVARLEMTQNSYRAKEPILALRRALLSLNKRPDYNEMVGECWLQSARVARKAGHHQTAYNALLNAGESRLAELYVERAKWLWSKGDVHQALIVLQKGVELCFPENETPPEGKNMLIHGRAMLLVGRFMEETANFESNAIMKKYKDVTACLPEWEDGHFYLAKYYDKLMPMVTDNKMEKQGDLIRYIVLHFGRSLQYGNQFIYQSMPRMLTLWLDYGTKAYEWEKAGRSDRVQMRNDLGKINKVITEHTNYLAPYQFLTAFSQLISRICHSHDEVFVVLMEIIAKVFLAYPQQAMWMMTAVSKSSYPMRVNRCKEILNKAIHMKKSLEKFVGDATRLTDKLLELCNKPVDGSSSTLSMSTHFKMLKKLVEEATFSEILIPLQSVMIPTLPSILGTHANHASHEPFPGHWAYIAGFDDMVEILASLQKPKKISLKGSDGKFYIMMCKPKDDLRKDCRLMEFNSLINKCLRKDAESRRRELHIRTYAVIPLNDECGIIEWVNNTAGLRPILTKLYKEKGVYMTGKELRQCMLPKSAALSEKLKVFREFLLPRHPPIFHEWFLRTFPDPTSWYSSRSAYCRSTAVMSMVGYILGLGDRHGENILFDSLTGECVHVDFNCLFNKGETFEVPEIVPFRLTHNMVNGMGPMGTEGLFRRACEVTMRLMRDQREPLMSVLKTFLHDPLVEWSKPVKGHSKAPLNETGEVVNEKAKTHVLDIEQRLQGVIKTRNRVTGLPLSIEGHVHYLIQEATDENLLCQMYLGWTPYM
One may read the Ki as a dissociation constant, usually derived from enzyme kinetics or from competition with a known ligand. As to `CS(=O)(=O)c1cccc(-c2cnc(N)c(-c3nc4ccccc4[nH]3)n2)c1` [Compound I-122, 3-(1H-benzo[d]imidazol-2-yl)-5-(3-(methylsulfonyl)phenyl)pyrazin-2-amine], the Ki was 10 to 100 nM.

With `CS(=O)(=O)c1ccc(-c2cnc(N)c(-c3nc4ccncc4[nH]3)n2)cc1` [Compound I-120, 3-(3H-imidazo[4,5-c]pyridin-2-yl)-5-(4-(methylsulfonyl)phenyl) pyrazin-2-amine], the Ki is 10 to 100 nM.

Regarding `COC(=O)c1ccccc1-c1cnc(N)c(-c2nnc(-c3ccccc3)o2)n1` [IA-105, methyl 2-[5-amino-6-(5-phenyl-1,3,4-oxadiazol-2-yl)pyrazin-2-yl]benzoate], the Ki was 100 to 5000 nM.

`CNCc1ccc(-c2nnc(-c3nc(-c4ccc(S(=O)(=O)C(C)C)cc4C)cnc3N)o2)cc1` [IA-293, 5-(4-isopropylsulfonyl-2-methyl-phenyl)-3-[5-[4-(methylaminomethyl)phenyl]-1,3,4-oxadiazol-2-yl]pyrazin-2-amine]: the Ki was at most 10 nM.

For `CC(C)S(=O)(=O)c1ccc(-c2cnc(N)c(-c3nnc(C(=O)NC4CCNC4)o3)n2)cc1` (stereo not shown) [IA-114, 5-[3-amino-6-(4-isopropylsulfonylphenyl)pyrazin-2-yl]-N-pyrrolidin-3-yl-1,3,4-oxadiazole-2-carboxamide], the Ki was 100 to 5000 nM.

Turning to `CC(C)S(=O)(=O)c1ccc(-c2cnc(N)c(-c3nnc(NC(=O)[C@@H]4CCCN4)o3)n2)cc1` [IA-217, (2S)—N-[5-[3-amino-6-(4-isopropylsulfonylphenyl)pyrazin-2-yl]-1,3,4-oxadiazol-2-yl]pyrrolidine-2-carboxamide], the Ki lay within 100 to 5000 nM.

With `CC(=O)Nc1ccc(NC(=O)c2nc(-c3cccnc3)cnc2N)cc1` [Compound I-93, 3-amino-N-(4-ethanamidophenyl)-6-(pyridin-3-yl)pyrazine-2-carboxamide], the Ki was in the range of 100 to 5000 nM.

Take `C[S+]([O-])c1ccccc1-c1cnc(N)c(-c2nnc(-c3ccccc3)o2)n1` (stereo not shown) [IA-241, 5-(2-methylsulfinylphenyl)-3-(5-phenyl-1,3,4-oxadiazol-2-yl)pyrazin-2-amine]: the Ki is at most 10 nM.

Consider `CC(C)[S+]([O-])c1ccc(-c2cnc(N)c(-c3nnc(-c4ccccc4)o3)n2)cc1` (stereo not shown) [IA-90, 5-(4-isopropylsulfinylphenyl)-3-(5-phenyl-1,3,4-oxadiazol-2-yl)pyrazin-2-amine], for which the Ki is at most 10 nM.

Turning to `CN(C)CCS(=O)(=O)c1ccc(-c2cnc(N)c(-c3nnc(-c4ccccc4)o3)n2)cc1` [IA-169, 5-[4-(2-dimethylaminoethylsulfonyl)phenyl]-3-(5-phenyl-1,3,4-oxadiazol-2-yl)pyrazin-2-amine], the Ki is at most 10 nM.

As for `N#Cc1cccc(-c2cnc(N)c(-c3nnc(-c4ccccc4)o3)n2)c1` [IA-252, 3-[5-amino-6-(5-phenyl-1,3,4-oxadiazol-2-yl)pyrazin-2-yl]benzonitrile], the Ki was 10 to 100 nM.

As to `CNCc1ccc(-c2nnc(-c3nc(-c4ccc(S(=O)(=O)C(C)CN(C)C)cc4)cnc3N)o2)cc1` (stereo not shown) [IA-324, 5-[4-[2-(dimethylamino)-1-methyl-ethyl]sulfonylphenyl]-3-[5-[4-(methylaminomethyl)phenyl]-1,3,4-oxadiazol-2-yl]pyrazin-2-amine], the Ki is at most 10 nM.

For the compound `CN(C)C(=O)c1ccc(-c2cnc(N)c(-c3nnc(-c4ccc[nH]c4=O)o3)n2)cc1` [IA-53], the inhibition constant Ki lay in the range of 10 to 100 nM.

For `NCc1ccc(-c2nnc(-c3nc(-c4cccnc4)cnc3N)[nH]2)cc1` [Compound I-139, 3-(5-(4-(aminomethyl)phenyl)-4H-1,2,4-triazol-3-yl)-5-(pyridin-3-yl)pyrazin-2-amine], the Ki is 10 to 100 nM.

For `Nc1ncc(-c2cccnc2)nc1C(=O)Nc1ccccc1F` [Compound I-96, 3-amino-N-(2-fluorophenyl)-6-(pyridin-3-yl)pyrazine-2-carboxamide], the Ki is 100 to 5000 nM.

As to `CN(C)C(=O)c1ccc(-c2cnc(N)c(-c3nnc(-c4ccccc4)o3)n2)c(Cl)c1` [IA-46], the Ki lay within 10 to 100 nM.

`CN(C)C(=O)c1ccc(-c2cnc(N)c(-c3nnc(-c4ccco4)o3)n2)cc1` [IA-115, 4-[5-amino-6-[5-(2-furyl)-1,3,4-oxadiazol-2-yl]pyrazin-2-yl]-N,N-dimethyl-benzamide]: the Ki lay in the range of 10 to 100 nM.

`Nc1ncc(-c2ccc3ncccc3c2)nc1-c1nnc(-c2ccccc2)o1` [IA-63]: the Ki lay in the range of 10 to 100 nM.

`CN(C)C1CCN(C(=O)c2ccc(-c3cnc(N)c(-c4nnc(-c5ccccc5)o4)n3)c(C(F)(F)F)c2)CC1` [IA-22]: the Ki is 10 to 100 nM.

Consider `Cc1ccc2nc(-c3nc(-c4ccc(C(=O)N5CCCN(C)CC5)cc4)cnc3N)[nH]c2c1` [Compound I-151, (4-(5-amino-6-(6-methyl-1H-benzo[d]imidazol-2-yl)pyrazin-2-yl)phenyl)(4-methyl-1,4-diazepan-1-yl)methanone], for which the Ki was 10 to 100 nM.

Take `Nc1ncc(-c2cccc(CO)c2)nc1-c1nnc(-c2ccccc2)o1` [IA-202, [3-[5-amino-6-(5-phenyl-1,3,4-oxadiazol-2-yl)pyrazin-2-yl]phenyl]methanol]: the Ki was 100 to 5000 nM.

In the case of `Nc1ncc(-c2cccnc2)nc1C(=O)Nc1cccc2cc[nH]c12` [Compound V-15], the Ki fell in the range of 100 to 5000 nM.

For `C[S+]([O-])c1ccccc1-c1cnc(N)c(-c2nnc(-c3cccc(CN)c3)o2)n1` (stereo not shown) [IA-257, 3-[5-[3-(aminomethyl)phenyl]-1,3,4-oxadiazol-2-yl]-5-(2-methylsulfinylphenyl)pyrazin-2-amine], the Ki was at most 10 nM.

`CNCc1cccc(-c2nnc(-c3nc(-c4ccc(S(=O)(=O)C(C)C)cc4)cnc3N)o2)c1` [IA-146, 5-(4-isopropylsulfonylphenyl)-3-[5-[3-(methylaminomethyl)phenyl]-1,3,4-oxadiazol-2-yl]pyrazin-2-amine]: the Ki was at most 10 nM.

With `CC(=O)Nc1nnc(-c2nc(-c3ccc(S(=O)(=O)C(C)C)cc3)cnc2N)o1` [IA-177, N-[5-[3-amino-6-(4-isopropylsulfonylphenyl)pyrazin-2-yl]-1,3,4-oxadiazol-2-yl]acetamide], the inhibition constant (Ki) was in the range of 10 to 100 nM.

Take `CC(C)S(=O)(=O)c1ccc(-c2cnc(N)c(-c3nnc(N4CCCC(N)C4)o3)n2)cc1` (stereo not shown) [IA-206, 3-[5-(3-amino-1-piperidyl)-1,3,4-oxadiazol-2-yl]-5-(4-isopropylsulfonylphenyl)pyrazin-2-amine]: the Ki lay in the range of 100 to 5000 nM.

For the compound `COc1ccccc1-c1nnc(-c2nc(-c3ccc(C(=O)N(C)C)cc3)cnc2N)o1` [IA-242, 4-[5-amino-6-[5-(2-methoxyphenyl)-1,3,4-oxadiazol-2-yl]pyrazin-2-yl]-N,N-dimethyl-benzamide], the Ki was at most 10 nM.

Consider `CC(C)S(=O)(=O)c1ccc(-c2cnc(N)c(-c3nnc(CCCN)o3)n2)cc1` [IA-91, 3-[5-(3-aminopropyl)-1,3,4-oxadiazol-2-yl]-5-(4-isopropylsulfonylphenyl)pyrazin-2-amine], for which the Ki is 100 to 5000 nM.

For `Nc1ncc(-c2ccc(C(=O)N3CCNCC3)c(F)c2)nc1-c1nnc(-c2ccccc2)o1` [IA-7], the Ki lay in the range of 10 to 100 nM.

Regarding `C[C@H](Nc1nnc(-c2nc(-c3ccc(C(=O)N(C)C)cc3)cnc2N)o1)c1ccc(Cl)cc1` [IA-129, 4-[5-amino-6-[5-[[(1 S)-1-(4-chlorophenyl)ethyl]amino]-1,3,4-oxadiazol-2-yl]pyrazin-2-yl]-N,N-dimethyl-benzamide], the Ki is 10 to 100 nM.

For the compound `Nc1ncc(-c2ccc(S(=O)(=O)N3CCNCC3)cc2)nc1-c1nnc(-c2ccccc2)o1` [IA-24], the Ki was 10 to 100 nM.

On to `CC(C)NCc1ccc(-c2nnc(-c3nc(-c4ccc(S(=O)(=O)C(C)C)cc4)cnc3N)o2)s1` [IA-248, 3-[5-[5-[(isopropylamino)methyl]-2-thienyl]-1,3,4-oxadiazol-2-yl]-5-(4-isopropylsulfonylphenyl)pyrazin-2-amine], for which the Ki is at most 10 nM.

On to `CN(C)C1CCN(C(=O)c2ccc(-c3cnc(N)c(-c4nnc(-c5ccccc5)o4)n3)cc2F)CC1` [IA-4], for which the Ki is at most 10 nM.

For the compound `Nc1cccc(-c2nnc(-c3nc(-c4cccnc4)cnc3N)[nH]2)c1` [Compound I-140, 3-(5-(3-aminophenyl)-4H-1,2,4-triazol-3-yl)-5-(pyridin-3-yl)pyrazin-2-amine], the Ki lay within 10 to 100 nM.

Consider `Nc1ncc(-c2ccc(S(=O)(=O)C3CCOC3)cc2)nc1-c1nnc(-c2ccccc2F)o1` (stereo not shown) [IA-349, 3-[5-(2-fluorophenyl)-1,3,4-oxadiazol-2-yl]-5-(4-tetrahydrofuran-3-ylsulfonylphenyl)pyrazin-2-amine], for which the Ki was at most 10 nM.

With `CNCc1ccc(-c2nnc(-c3nc(-c4ccc(S(=O)(=O)C(C)C)nc4)cnc3N)o2)cc1` [IA-303, 5-(6-isopropylsulfonyl-3-pyridyl)-3-[5-[4-(methylaminomethyl)phenyl]-1,3,4-oxadiazol-2-yl]pyrazin-2-amine], the Ki is at most 10 nM.

On to `CNCc1ccc(-c2nnc(-c3nc(-c4ccc(S(=O)(=O)C(C)CC(C)(C)O)cc4)cnc3N)o2)c(F)c1` (stereo not shown) [IA-328, 4-[4-[5-amino-6-[5-[2-fluoro-4-(methylaminomethyl)phenyl]-1,3,4-oxadiazol-2-yl]pyrazin-2-yl]phenyl]sulfonyl-2-methyl-pentan-2-ol], for which the Ki is at most 10 nM.

As for `CC(C)S(=O)(=O)c1ccc(-c2cnc(N)c(-c3nnc(NC(=O)CN)o3)n2)cc1` [IA-82, 2-amino-N-[5-[3-amino-6-(4-isopropylsulfonylphenyl)pyrazin-2-yl]-1,3,4-oxadiazol-2-yl]acetamide], the Ki was 100 to 5000 nM.

For `Nc1ncc(-c2ccccc2F)nc1C(=O)Nc1ccccc1` [Compound I-14, 3-amino-6-(2-fluorophenyl)-N-phenylpyrazine-2-carboxamide], the Ki was 100 to 5000 nM.

Consider `Nc1ncc(-c2ccc(N3CCOCC3)nc2)nc1-c1nnc(-c2ccccc2)o1` [IA-283, 5-(6-morpholino-3-pyridyl)-3-(5-phenyl-1,3,4-oxadiazol-2-yl)pyrazin-2-amine], for which the Ki lay within 10 to 100 nM.
